According to patent publication US20130296363A1, “QUINOLINE AND ISOQUINOLINE DERIVATIVES FOR USE AS JAK MODULATORS” (AMBIT BIOSCIENCES CORPORATION, priority 2010, published 2013):
pIC50, pKd: −log10 of the molar value.

Assays:
[1] = biological target: T1, JAK3 (Homo sapiens, UniProt P52333); experiment: Competition binding assay to determine Kd against JAK kinases: JAK3
T1 construct: made in house
T1 sequence (P52333 1-1124): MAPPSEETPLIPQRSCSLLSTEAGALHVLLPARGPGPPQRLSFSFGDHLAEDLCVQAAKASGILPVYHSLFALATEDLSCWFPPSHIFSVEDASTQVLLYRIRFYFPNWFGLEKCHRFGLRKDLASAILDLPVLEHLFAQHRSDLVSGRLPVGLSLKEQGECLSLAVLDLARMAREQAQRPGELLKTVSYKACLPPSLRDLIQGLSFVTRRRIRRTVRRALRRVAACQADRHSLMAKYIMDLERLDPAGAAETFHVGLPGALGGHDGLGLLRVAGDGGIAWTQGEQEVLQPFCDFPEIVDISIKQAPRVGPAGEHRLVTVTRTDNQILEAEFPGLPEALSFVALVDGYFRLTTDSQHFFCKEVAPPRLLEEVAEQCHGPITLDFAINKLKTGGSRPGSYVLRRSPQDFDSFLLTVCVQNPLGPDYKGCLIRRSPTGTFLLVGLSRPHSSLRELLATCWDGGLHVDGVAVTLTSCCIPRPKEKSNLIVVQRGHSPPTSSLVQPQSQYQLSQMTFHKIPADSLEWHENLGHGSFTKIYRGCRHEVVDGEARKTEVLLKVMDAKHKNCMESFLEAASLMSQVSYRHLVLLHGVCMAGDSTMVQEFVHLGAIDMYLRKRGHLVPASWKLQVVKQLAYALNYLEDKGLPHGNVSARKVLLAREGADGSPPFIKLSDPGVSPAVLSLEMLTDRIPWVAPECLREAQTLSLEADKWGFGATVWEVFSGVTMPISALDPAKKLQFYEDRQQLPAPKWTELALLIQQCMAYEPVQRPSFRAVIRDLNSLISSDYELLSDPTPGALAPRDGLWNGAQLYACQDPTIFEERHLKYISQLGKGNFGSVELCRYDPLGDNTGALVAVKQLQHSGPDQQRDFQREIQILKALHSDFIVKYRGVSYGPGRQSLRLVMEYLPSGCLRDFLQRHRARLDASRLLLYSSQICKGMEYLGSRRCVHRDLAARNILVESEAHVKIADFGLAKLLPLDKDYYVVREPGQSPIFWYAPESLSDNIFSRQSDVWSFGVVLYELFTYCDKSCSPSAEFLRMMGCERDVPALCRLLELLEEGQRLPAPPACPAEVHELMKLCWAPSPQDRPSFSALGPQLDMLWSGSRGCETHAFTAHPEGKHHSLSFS
Description: (§1) Competition binding assays used herein were developed, validated and performed as described in Fabian et al., Nature Biotechnology 2005, 23, 329-336. Kinases were produced as fusions to T7 phage (See, Fabian et al. or WO04/015142) or alternatively, the kinases were expressed in HEK-293 cells and subsequently tagged with DNA for PCR detection (See, WO08/005,310). For the binding assays, streptavidin-coated magnetic beads were treated with biotinylated affinity ligands for 30 min at rt to generate affinity resins. The liganded beads were blocked with excess biotin and washed with blocking buffer (SeaBlock (Pierce), 1% BSA, 0.05% Tween 20, 1 mM DTT) to remove unbound ligand and to reduce non-specific binding. Binding reactions were assembled by combining kinase, liganded affinity beads, and test compounds in 1× binding buffer (20% SeaBlock, 0.17×PBS, 0.05% Tween 20, 6 mM DTT). Test compounds were prepared as 100× stocks in DMSO and rapidly diluted into the aqueous environment. DMSO was added to control assays lacking a test compound. Primary screen interactions were performed in polypropylene 384-well plates in a final volume of 34 μL, while Kd determinations were performed in polystyrene 96-well plates in a final volume of 135 μL. The assay plates were incubated at room temperature with shaking for 1 hour, long enough for binding reactions to reach equilibrium, and the affinity beads were washed extensively with wash buffer (1×PBS, 0.05% Tween 20) to remove unbound protein. The beads were then resuspended in elution buffer (1×PBS, 0.05% Tween 20, 2 μM non-biotinylated affinity ligand) and incubated at room temperature with shaking for 30 min. The kinase concentration in the eluates was measured by quantitative PCR. Each kinase was tested individually against each compound. Kds were determined using eleven serial threefold dilutions. A selectivity score, which is a quantitative measure of selectivity of a compound against a panel of enzymes, may be calculated for a compound by dividing the number of enzymes for which a compound meets a set criteria, (for example, a binding constant of 100 nM or less), by the total number of enzymes tested.

[2] = test system: GM-CSFR/JAK2/STAT5 pathway in CSTF-1 cells; experiment: CSTF-1 cell-based reporter assay (beta-lactamase reporter, GM-CSF stimulated); conditions: Homo sapiens, GM-CSF at 2 ng/mL, 4 hours, read-out: Cell Assay: CS TF-1 reporter assay IC50
Description: CSTF-1 cells are derived from the human erythroleukemia cell line that is growth dependent on GM-CSF and has an intact GM-CSFR/JAK2/STAT5 pathway. The cell line contains stably integrated beta-lactamase reporter gene under the control of the […] (irf 1) response element recognized by the activated transcription factor STAT5. csTF-1 cells (Invitrogen K1219) were washed with assay media (97% OPTIMEM/0.5% dialyzed FBS/0.1 mM NEAA/1 mM Na pyr/P/S) and seeded in the same media at 5×10^5 cell/mL in T150 flask. After 16 hour incubation, cells were seeded at 2×10^5 cell/well in 50 μl volume, into Costar, clear bottom, 96-well assay plates. Serial dilutions of compounds were added to the plates with final DMSO concentration at 0.5% and GM-CSF at 2 ng/mL and the plates were then incubated at 30° C. and 5% CO2 for 4 hours. The plates were brought to room temperature before adding Substrate Mixture according to manufacturer's protocol (Invitrogen, Catalog #K1085). The assay plates containing the substrate mixture were incubated in the dark at room temperature for 2 hours. Blue and green fluorescence was measured with excitation at 409 nm and emission at 460 nm (for blue) and excitation at 409 nm and emission at 530 nm (for green) using Spectra Max Gemini EM.

[3] = biological target: T2, TYK2 (Homo sapiens, UniProt P29597); experiment: Competition binding assay to determine Kd against JAK kinases: TYK2
T2 construct: made in house
Description: as §1

[4] = biological target: T3, JAK2 (Homo sapiens, UniProt O60674); experiment: Competition binding assay to determine Kd against JAK kinases: JAK2
T3 construct: made in house
Description: as §1

[5] = test system: panel of distinct kinases excluding mutant variants, typically 359 or 386 kinases; experiment: Kinase selectivity score S10 from competition binding panel; conditions: compound at 10 μM; fraction of kinases with inhibition of 90% or greater
Description: as §1

T2 sequence (P29597 whole entry): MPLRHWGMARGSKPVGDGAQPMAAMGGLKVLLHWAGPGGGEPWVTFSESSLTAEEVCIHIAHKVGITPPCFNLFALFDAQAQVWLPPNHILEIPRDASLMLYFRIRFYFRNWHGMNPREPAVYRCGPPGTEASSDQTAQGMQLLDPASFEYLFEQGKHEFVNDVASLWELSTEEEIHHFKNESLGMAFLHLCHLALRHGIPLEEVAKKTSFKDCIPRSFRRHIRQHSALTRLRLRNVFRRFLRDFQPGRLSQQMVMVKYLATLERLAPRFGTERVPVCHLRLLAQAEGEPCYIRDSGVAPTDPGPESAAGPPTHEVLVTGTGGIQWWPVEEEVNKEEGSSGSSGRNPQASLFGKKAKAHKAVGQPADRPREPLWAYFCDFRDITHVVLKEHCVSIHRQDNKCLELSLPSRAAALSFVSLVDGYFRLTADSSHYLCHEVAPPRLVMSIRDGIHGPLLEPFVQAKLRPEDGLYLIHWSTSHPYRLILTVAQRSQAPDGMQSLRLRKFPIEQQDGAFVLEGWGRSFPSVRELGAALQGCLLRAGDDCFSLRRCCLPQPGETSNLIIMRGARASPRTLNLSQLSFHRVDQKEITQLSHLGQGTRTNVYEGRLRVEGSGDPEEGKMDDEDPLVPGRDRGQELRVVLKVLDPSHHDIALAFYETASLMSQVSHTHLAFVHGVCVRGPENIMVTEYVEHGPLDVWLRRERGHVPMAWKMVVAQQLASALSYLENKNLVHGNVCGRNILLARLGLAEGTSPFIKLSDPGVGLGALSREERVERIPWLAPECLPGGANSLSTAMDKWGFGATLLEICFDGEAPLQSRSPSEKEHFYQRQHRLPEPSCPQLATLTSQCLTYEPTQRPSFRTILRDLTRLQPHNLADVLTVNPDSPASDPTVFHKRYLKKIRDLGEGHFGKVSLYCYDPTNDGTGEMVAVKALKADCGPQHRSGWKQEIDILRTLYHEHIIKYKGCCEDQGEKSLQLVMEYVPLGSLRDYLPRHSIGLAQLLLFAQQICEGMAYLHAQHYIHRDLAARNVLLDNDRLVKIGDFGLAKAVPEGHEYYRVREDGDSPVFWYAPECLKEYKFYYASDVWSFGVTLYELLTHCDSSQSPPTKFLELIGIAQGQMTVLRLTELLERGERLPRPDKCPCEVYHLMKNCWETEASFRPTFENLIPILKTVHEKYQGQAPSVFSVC
T3 sequence (O60674 whole entry): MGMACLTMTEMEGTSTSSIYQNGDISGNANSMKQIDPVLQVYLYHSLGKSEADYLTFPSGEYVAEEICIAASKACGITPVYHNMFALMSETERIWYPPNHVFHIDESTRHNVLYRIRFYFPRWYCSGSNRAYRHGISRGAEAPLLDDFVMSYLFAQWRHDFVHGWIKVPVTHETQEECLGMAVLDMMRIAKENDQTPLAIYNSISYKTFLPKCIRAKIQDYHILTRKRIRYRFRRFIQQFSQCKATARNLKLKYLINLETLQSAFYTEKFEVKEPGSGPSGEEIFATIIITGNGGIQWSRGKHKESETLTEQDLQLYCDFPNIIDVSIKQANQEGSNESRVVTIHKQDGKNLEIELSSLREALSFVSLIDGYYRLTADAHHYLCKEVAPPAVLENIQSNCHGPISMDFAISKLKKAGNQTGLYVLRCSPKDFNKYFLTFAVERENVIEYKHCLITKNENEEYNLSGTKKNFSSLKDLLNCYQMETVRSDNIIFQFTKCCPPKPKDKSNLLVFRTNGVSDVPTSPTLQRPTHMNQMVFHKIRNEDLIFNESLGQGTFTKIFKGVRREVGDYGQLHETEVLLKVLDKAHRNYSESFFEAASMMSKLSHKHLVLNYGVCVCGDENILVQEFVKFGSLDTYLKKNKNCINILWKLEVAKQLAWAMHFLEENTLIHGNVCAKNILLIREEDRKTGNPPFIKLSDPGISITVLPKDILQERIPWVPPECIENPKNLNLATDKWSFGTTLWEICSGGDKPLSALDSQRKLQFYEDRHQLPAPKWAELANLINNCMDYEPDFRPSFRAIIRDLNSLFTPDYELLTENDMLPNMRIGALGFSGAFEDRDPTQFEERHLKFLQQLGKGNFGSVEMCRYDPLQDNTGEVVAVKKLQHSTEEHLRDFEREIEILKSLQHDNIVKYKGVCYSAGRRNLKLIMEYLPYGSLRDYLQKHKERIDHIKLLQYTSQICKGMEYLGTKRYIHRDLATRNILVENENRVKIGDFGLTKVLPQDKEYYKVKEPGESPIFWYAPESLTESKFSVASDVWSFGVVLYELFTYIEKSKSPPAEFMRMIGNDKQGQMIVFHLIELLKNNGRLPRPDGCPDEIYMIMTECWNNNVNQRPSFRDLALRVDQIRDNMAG

Row | Compound | pKd [1] | pIC50 [2] | pKd [3] | pKd [4] | S-Score: S(10) at 10 μM [5]
1 | Cc1cc(Nc2nc(C(O)c3ccc(F)cc3)cc3ccccc23)n[nH]1 (racemic) [Example 2, (R,S)-(4-fluorophenyl)(1-(5-methyl-1H-pyrazol-3-ylamino)isoquinolin-3-yl)methanol] | ≥ 8.00 | ≥ 7.00 | ≥ 8.00 | ≥ 8.30 | –
2 | Cc1coc(Nc2nc([S+]([O-])c3ccc(F)cc3)cc3ccccc23)n1 (racemic) [Example 22, (R,S)—N-(3-(4-fluorophenylsulfinyl)isoquinolin-1-yl)-4-methyloxazol-2-amine] | < 7.00 | < 6.30 | – | < 7.30 | A (A ≦ 0.3)
3 | Cc1cc(Nc2nc(C(=O)c3ccc(F)cc3)cc3ccccc23)n[nH]1 [Example 1, (4-fluorophenyl)(1-(5-methyl-1H-pyrazol-3-ylamino)isoquinolin-3-yl)methanone] | 7.00 to 8.00 | 6.30 to 7.00 | ≥ 8.00 | ≥ 8.30 | A (A ≦ 0.3)
4 | Cc1cc(Nc2nc(S(=O)(=O)c3ccc(F)cc3)cc3ccccc23)n[nH]1 [Example 10, 3-(4-fluorophenylsulfonyl)-N-(5-methyl-1H-pyrazol-3-yl)isoquinolin-1-amine] | ≥ 8.00 | ≥ 7.00 | ≥ 8.00 | ≥ 8.30 | D (D > 0.5)
5 | [O-][S+](c1ccc(F)cc1)c1cc2ccccc2c(Nc2nccs2)n1 (stereo not shown) [Example 11, N-(3-(4-fluorophenylsulfinyl)isoquinolin-1-yl)thiazol-2-amine] | 7.00 to 8.00 | ≥ 7.00 | – | ≥ 8.30 | A (A ≦ 0.3)
6 | Cc1cnc(Nc2nc([S+]([O-])c3ccc(F)cc3)cc3ccccc23)s1 (stereo not shown) [Example 12, N-(3-(4-fluorophenylsulfinyl)isoquinolin-1-yl)-5-methylthiazol-2-amine] | 7.00 to 8.00 | ≥ 7.00 | ≥ 8.00 | ≥ 8.30 | C (0.4 < C ≦ 0.5)
7 | Cc1cc(Nc2nc([S+]([O-])c3ccc(F)cc3)cc3ccccc23)n[nH]1 (stereo not shown) [Example 13, 3-(4-fluorophenylsulfinyl)-N-(5-methyl-1H-pyrazol-3-yl)isoquinolin-1-amine] | ≥ 8.00 | ≥ 7.00 | ≥ 8.00 | ≥ 8.30 | D (D > 0.5)
8 | O=S(=O)(c1ccc(F)cc1)c1cc2ccccc2c(Nc2cc[nH]n2)n1 [Example 14, 3-(4-fluorophenylsulfonyl)-N-(1H-pyrazol-3-yl)isoquinolin-1-amine] | ≥ 8.00 | ≥ 7.00 | ≥ 8.00 | ≥ 8.30 | B (0.3 < B ≦ 0.4)
9 | COc1cc(Nc2nc(S(=O)(=O)c3ccc(F)cc3)cc3ccccc23)n[nH]1 [Example 15, 3-(4-fluorophenylsulfonyl)-N-(5-methoxy-1H-pyrazol-3-yl)isoquinolin-1-amine] | ≥ 8.00 | ≥ 7.00 | ≥ 8.00 | ≥ 8.30 | D (D > 0.5)
10 | Cc1cnc(Nc2nc(S(=O)(=O)c3ccc(F)cc3)cc3ccccc23)s1 [Example 16, N-(3-(4-fluorophenylsulfonyl)isoquinolin-1-yl)-5-methylthiazol-2-amine] | ≥ 8.00 | ≥ 7.00 | ≥ 8.00 | ≥ 8.30 | B (0.3 < B ≦ 0.4)
11 | O=S(=O)(c1ccc(F)cc1)c1cc2ccccc2c(Nc2nccs2)n1 [Example 17, N-(3-(4-fluorophenylsulfonyl)isoquinolin-1-yl)thiazol-2-amine] | 7.00 to 8.00 | 6.30 to 7.00 | 7.00 to 8.00 | ≥ 8.30 | A (A ≦ 0.3)
12 | O=S(=O)(c1ccc(F)cc1)c1cc2ccccc2c(Nc2ncns2)n1 [Example 18, N-(3-(4-fluorophenylsulfonyl)isoquinolin-1-yl)-1,2,4-thiadiazol-5-amine] | 7.00 to 8.00 | 6.30 to 7.00 | ≥ 8.00 | ≥ 8.30 | B (0.3 < B ≦ 0.4)
13 | O=S(=O)(c1ccc(F)cc1)c1cc2ccccc2c(Nc2cc(O)[nH]n2)n1 [Example 19, 3-(3-(4-fluorophenylsulfonyl)isoquinolin-1-ylamino)-1H-pyrazol-5-ol] | < 7.00 | < 6.30 | 7.00 to 8.00 | 7.30 to 8.30 | A (A ≦ 0.3)
14 | Cn1cnc(Nc2nc(S(=O)(=O)c3ccc(F)cc3)cc3ccccc23)c1 [Example 20, 3-(4-fluorophenylsulfonyl)-N-(1-methyl-1H-imidazol-4-yl)isoquinolin-1-amine] | ≥ 8.00 | ≥ 7.00 | ≥ 8.00 | ≥ 8.30 | C (0.4 < C ≦ 0.5)
15 | O=S(=O)(c1ccc(F)cc1)c1cc2ccccc2c(Nc2ncco2)n1 [Example 23, N-(3-(4-fluorophenylsulfonyl)isoquinolin-1-yl)oxazol-2-amine] | < 7.00 | < 6.30 | < 7.00 | < 7.30 | A (A ≦ 0.3)
16 | [2H]C([2H])([2H])n1cnc(Nc2nc(S(=O)(=O)c3ccc(F)cc3)cc3ccccc23)c1 [Example 24, 3-((4-fluorophenyl)sulfonyl)-N-(1-methyl-d3-1H-imidazol-4-yl)isoquinolin-1-amine] | ≥ 8.00 | ≥ 7.00 | ≥ 8.00 | ≥ 8.30 | B (0.3 < B ≦ 0.4)
17 | CCn1cnc(Nc2nc(S(=O)(=O)c3ccc(F)cc3)cc3ccccc23)c1 [Example 25, N-(1-ethyl-1H-imidazol-4-yl)-3-((4-fluorophenyl)sulfonyl)isoquinolin-1-amine] | ≥ 8.00 | ≥ 7.00 | ≥ 8.00 | ≥ 8.30 | C (0.4 < C ≦ 0.5)
